In US20240262817A1, “QUINAZOLINE DERIVATIVES TARGETING R(CCUG) REPEATS IN MYOTONIC DYSTROPHY TYPE 2” (University of Florida Research Foundation, Incorporated, priority 2021, published 2024):

Assays:
[1] = test system: DM2 patient-derived fibroblasts; test: Cell viability by CellTiter-Glo; assay type: cell-based; conditions: for toxicity in DM2 patient-derived fibroblasts: at 5 μM; for toxicity as stated in legend of FIG. 3C: DM2 fibroblasts
Description: (§1) Cell lines and cell culture: Compounds were tested in two cell lines: (i) DM2 patient-derived fibroblasts (generous gift from University of Florida, Center for NeuroGenetics) and (ii) fibroblasts from a healthy donor (wild-type; WT GM07492; Coriell Institute). Cells were maintained at 37° ° C. with 5% CO2. DM2 fibroblasts were cultured in DMEM/high glucose (HyClone) supplemented with 20% FBS (Sigma) and 1% Antibiotic-Antimycotic solution (Corning). Wild-type fibroblasts were cultured in MEM (Corning) supplemented with 10% FBS, 1% Glutagro (Corning), and 1% Antibiotic-Antimycotic solution.
Evaluation of cell viability: Compound toxicity in DM2 fibroblasts was evaluated using a CellTiter-Glo Kit (Promega) as described in the manufacturer's protocol. Briefly, after 48 h treatment in 96-wells plates, 100 μL of the CellTiter-Glo reagent was added to each well. The plate was then incubated at room temperature for 10 min, and luminescence was measured using BioTek FLX-800 luminescence plate reader (n=6 replicates; 1 independent experiment).

r(CCUG)12-MBNL1 complex = test: TR-FRET assay, disruption of pre-formed r(CCUG)12-MBNL1 complex; assay type: biochemical; conditions: in vitro, read-out: IC50 for disrupting an r(CCUG)12-MBNL1 complex
Description: Of the 44 hits, 38 contained a similar substituted N2-phenylquinazoline-2,4-diamine core, while the other hits contained benzimidazoles and indazoles (Figure S2). Importantly, these 44 compounds are drug-like as they have similar physicochemical properties to the rest of the library and to known-drugs in Drug Bank (FIG. 2A). On average, the 44 hit compounds have a molecular weight of 327±35 g/mol, a cLogP of 3.2±0.9. TPSA of 76±15 Å, and 2.5±0.9 hydrogen bond donors. The in vitro potencies (IC50s) of the 44 compounds were then measured in the TR-FRET assay, affording seven compounds (1-7) with IC50s <50 μM (highlighted in red in FIGS. 2B & 2C).
In vitro IC50 measurements: IC50 measurements for disruption of r(CCUG)12-MBNL1 complex was completed using a previously reported TR-FRET assay with minor modifications.^23, 24 Briefly, 5′-biotinylated r(CCUG)12 (SEQ ID NO: 15) was folded in 1× Folding Buffer (20 mM HEPES, pH 7.5, 110 mM KCl, and 10 mM NaCl) at 60° C. for 5 min then cooled to room temperature. The buffer was adjusted to 1× Assay Buffer (20 mM HEPES, pH 7.5, 110 mM KCl, 10 mM NaCl, 2 mM MgCl2, 2 mM CaCl2), 5 mM DTT. 0.1% BSA, and 0.5% Tween-20).
Next, MBNL1-His6 was added, and the samples were incubated at room temperature for 15 min. […] The samples were incubated for 30 min at room temperature and added to a white 384-well plate, where TR-FRET was measured on a Molecular Devices SpectraMax M5 plate reader using an excitation wavelength of 345-nm and a 420-nm cutoff. The ratios of fluorescence intensity at 545 and 665 nm were calculated, and ratios in the absence of a compound and in the absence of RNA were used to calculate percent disruption. […]
[formula] • where y is ratio of fluorescence intensities at 545 nm and 665 nm (F545/F665), x is the concentration of a compound, B is F545/F665 value at max FRET effect (solution has RNA and protein but no compound added); A is F545/F665 value at min FRET effect (solution has antibodies but no RNA, protein, or compound); and the IC50 is the concentration of a compound where half of the protein is displaced by a compound.

[2] = test system: r(GACAGCCUGCUGUC)2 duplex, RNA containing a single 2×2 CU/UC internal loop; test: NMR spectroscopy (WaterLOGSY, 1D) of binding to RNA with one 2×2 CU/UC internal loop
Description: The binding 1-7 an RNA containing a single 2×2 CU/UC was further studied by NMR spectroscopy. […] Aromatic protons of the unbound RNA were assigned via a 2D NOESY spectrum (Figure S7).
NMR samples preparation: A self-complementary RNA construct, r(5′-GACAGCCUGCUGUC-3′), SEQ ID NO:12, was purchased from GE Healthcare Dharmacon, Inc., deprotected according to the manufacturer's recommended protocol, and desalted with PD-10 columns (GE Healthcare, cat: 17-0851-01) also per the manufacturer's protocol. RNA samples were dissolved in NMR Buffer [10 mM KH2PO4/K2HPO4 and 0.05 mM EDTA (pH 6.0)] and folded by heating to 95° C. for 3 min and slowly cooling to room temperature.
NMR spectroscopy: NMR spectra were acquired at 25° C. on Bruker Avance III 600 and 700 MHZ spectrometers equipped with cryoprobes. 1D NMR spectra were acquired on samples containing 100 μM of RNA alone in 100% D20. Compounds 38, 40, 41, and 42 were each titrated into separate samples at 0.5, 1.0, 1.5, and 2.0 compound: RNA molar ratios. WaterLOGSY (water-ligand observed via gradient spectroscopy) spectra^29 were acquired on samples containing 300 μM of each compound alone or in the presence of 15 μM of RNA at a 20:1 compound:RNA ratio in H2O, to which D2O was added to 5% by volume. WaterLOGSY spectra were phased to give negative NOEs for non-binders. […]

[3] = test system: IR exon 11 alternative splicing in DM2 patient-derived fibroblasts; test: Rescue of IR exon 11 splicing via RT-PCR in DM2 fibroblasts; assay type: cell-based
Description: as §1
Evaluation of pre-mRNA splicing via RT-PCR: Pre-mRNA splicing was analyzed as previously described.^10 Briefly, cells were grown in 6-well plates and treated with the desired compound in growth medium at ˜40% confluency. After 48 h, the cells were lysed, and total RNA was harvested using a Zymo Quick RNA Miniprep Kit. Approximately 1 μg of total RNA was reverse transcribed using a qScript cDNA synthesis kit (20 μL of total reaction volume, Quanta BioSciences); 2 μL of the RT reaction was used for PCR using GoTaq DNA polymerase (Promega). RT-PCR products were observed after 35 cycles of 95° C. for 30 s, 58° C. for 30s, 72 °C for 1 min, and a final extension at 72° C. for 5 min. Products were separated on a 2% agarose gel (110 V for 1 h in 13TBE buffer), visualized by staining with ethidium bromide, and imaged using a Typhoon 9410 variable mode imager. Gels were quantified using ImageJ. Percent rescue was calculated by dividing the difference between treated and untreated DM2 samples by the difference between untreated DM2 and WT samples (Equation 2).

## Cc1ccc2nc(Nc3ccc4nc(NC5CCN(Cc6ccccc6)CC5)sc4c3)nc(NCCCO)c2c1 [Compound 71, 3-((2-((2-((1-benzylpiperidin-4-yl)amino)benzo[d]thiazol-6-yl)amino)-6-methylquinazolin-4-yl)amino)propan-1-ol]
[1]
  toxicity in DM2 patient-derived fibroblasts: significant toxicity

## Cc1ccc2nc(Nc3ccc4c(c3)OCCO4)nc(NCCCO)c2c1 [Compound 58, 3-((2-((2,3-dihydrobenzo[b][1,4]dioxin-6-yl)amino)-6-methylquinazolin-4-yl)amino)propan-1-ol]
r(CCUG)12-MBNL1 complex
  IC50: 12.7 ± 0.2 µM

## OCCCNc1nc(Nc2ccc3c(c2)OCCO3)nc2ccccc12 [Compound 7, 3-((2-((2,3-dihydrobenzo[b][1,4]dioxin-6-yl)amino)quinazolin-4-yl)amino)propan-1-ol]
[2]; compound added to RNA with one 2×2 CU/UC internal loop
  shifts of RNA H6 and H8 proton resonances in 1D NMR, indicating binding: Significant shifts in resonances
[2]; positive phase signals in the presence of RNA
  binding to the RNA by waterLOGSY spectra: bound to the RNA
[3]; at 1 μM dose, p=0.026
  rescue of IR splicing: 12±5
[3]; at 5 μM
  rescue of IR exon 11 splicing: ~50%
r(CCUG)12-MBNL1 complex
  IC50: 48.2 ± 0.07 µM

## Cc1ccc2nc(Nc3ccc4nc(NCCN5CCOCC5)sc4c3)nc(NCCCO)c2c1 [Compound 74, 3-((6-methyl-2-((2-((2-morpholinoethyl)amino)benzo[d]thiazol-6-yl)amino)quinazolin-4-yl)amino)propan-1-ol]
[1]
  toxicity in DM2 patient-derived fibroblasts: significant toxicity

## Cc1ccc2nc(Nc3ccc4nc(N5CCN(C)CC5)sc4c3)nc(NCCCO)c2c1 [Compound 82, 3-((6-methyl-2-((2-(4-methylpiperazin-1-yl)benzo[d]thiazol-6-yl)amino)quinazolin-4-yl)amino)propan-1-ol]
[1]
  toxicity in DM2 patient-derived fibroblasts: significant toxicity

## Cc1ccc2nc(Nc3ccc4nc(NCC(C)(C)O)sc4c3)nc(NCCCO)c2c1 [Compound 78, 3-((2-((2-((2-hydroxy-2-methylpropyl)amino)benzo[d]thiazol-6-yl)amino)-6-methylquinazolin-4-yl)amino)propan-1-ol]
[3]; at 5 μM
  improvement of IR splicing: significantly improved IR splicing
[1]
  toxicity in DM2 patient-derived fibroblasts: no toxicity

## Cc1ccc2nc(Nc3ccc4nc(NCC(C)C)sc4c3)nc(NCCCO)c2c1 [Compound 73, 3-((2-((2-(isobutylamino)benzo[d]thiazol-6-yl)amino)-6-methylquinazolin-4-yl)amino)propan-1-ol]
[1]
  toxicity in DM2 patient-derived fibroblasts: significant toxicity

## Cc1ccc2nc(Nc3ccc4nc(N5CCOCC5)sc4c3)nc(NCCCO)c2c1 [Compound 72, 3-((6-methyl-2-((2-morpholinobenzo[d]thiazol-6-yl)amino)quinazolin-4-yl)amino)propan-1-ol]
[1]
  toxicity in DM2 patient-derived fibroblasts: significant toxicity

## Cc1ccc2nc(Nc3ccc4nc(N(CCO)CCO)sc4c3)nc(NCCCO)c2c1 [Compound 80, 2,2′-((6-((4-((3-hydroxypropyl)amino)-6-methylquinazolin-2-yl)amino)benzo[d]thiazol-2-yl)azanediyl)bis(ethan-1-ol)]
[1]
  toxicity as stated in legend of FIG. 3C: non-toxic

## Cc1ccc2nc(Nc3ccc4nc(NCCN(C)C)sc4c3)nc(NCCCO)c2c1 [Compound 79, 3-((2-((2-((2-(dimethylamino)ethyl)amino)benzo[d]thiazol-6-yl)amino)-6-methylquinazolin-4-yl)amino)propan-1-ol]
[3]; any concentration studied
  rescue of IR splicing: did not significantly rescue splicing
[1]
  toxicity as stated in legend of FIG. 3C: non-toxic
  toxicity in DM2 patient-derived fibroblasts: no toxicity
